One assay deals with HUV-EC-C cells (aFGF). Kind of assay: HUV-EC-C assay, aFGF (ECGF)-stimulated 3H-thymidine incorporation (HUVEC-aFGF). It is filed as cell-based. Conditions: Homo sapiens; Table 1. The protocol:
(§1) The following protocol may also be used to measure a compound's activity against PDGF-R, FGF-R, VEGF, aFGF or Flk-1/KDR, all of which are naturally expressed by HUV-EC cells.
(§2) 1. […] After cells have detached from the flask, add an equal volume of assay medium and transfer to a 50 ml sterile centrifuge tube (Fisher Scientific, catalogue no. 05-539-6).
(§3) 2. Wash the cells with about 35 ml assay medium in the 50 ml sterile centrifuge tube by adding the assay medium, centrifuge for 10 minutes at approximately 200x g, aspirate the supernatant, and resuspend with 35 ml D-PBS. Repeat the wash two more times with D-PBS, resuspend the cells in about 1 ml assay medium/is cm^2 of tissue culture flask. Assay medium consists of F12K medium (Gibco BRL, catalogue no. 21127-014) and 0.5% heat-inactivated fetal bovine serum. Count the cells with a Coulter Counter® (Coulter Electronics, Inc.) and add assay medium to the cells to obtain a concentration of 0.8-1.0×10^5 cells/ml.
(§4) 3. Add cells to 96-well flat-bottom plates at 100 μl/well or 0.8-1.0×10^4 cells/well, incubate −24h at 37° C., 5% CO2.
(§5) 1. Make up two-fold test compound titrations in separate 96-well plates, generally 50 μM on down to 0 μM. Use the same assay medium as mentioned in day 0, step 2 above. Titrations are made by adding […] of test compound at 200 μM (4X the final well concentration) to the top well of a particular plate column. Since the stock test compound is usually 20 mM in DMSO, the 200 μM drug concentration contains 2% DMSO.
(§6) A diluent made up to 2% DMSO in assay medium (F12K+0.5% fetal bovine serum) is used as diluent for the test compound titrations in order to dilute the test compound but keep the DMSO concentration constant. Add this diluent to the remaining wells in the column at 60 μl/well. Take 60 μl from the 120 μl of 200 μM test compound dilution in the top well of the column and mix with the 60 μl in the second well of the column. Take 60 μl from this well and mix with the 60 μl in the third well of the column, and so on until two-fold titrations are completed. When the next-to-the-last well is mixed, take 60 μl of the 120 μl in this well and discard it. Leave the last well with 60 μl of DMSO/media diluent as a non-test compound-containing control. Make 9 columns of titrated test compound, enough for triplicate wells each for: (1) VEGF (obtained from Pepro Tech Inc., catalogue no. 100-200, (2) endothelial cell growth factor (ECGF) (also known as acidic fibroblast growth factor, or aFGF) (obtained from Boehringer Mannheim Biochemica, catalogue no. 1439 600), or, (3) human PDGF B/B (1276-956, Boehringer Mannheim, Germany) and assay media control. ECGF comes as a preparation with sodium heparin.
(§7) 2. Transfer 50 μl/well of the test compound dilutions to the 96-well assay plates containing the 0.8-1.0×10^4 cells/100 μl/well of the HUV-EC-C cells from day 0 and incubate […] at 37° C., 5% CO2.
(§8) 3. In triplicate, add 50 μl well of […] VEGF, 20 ng/ml ECGF, or media control to each test compound condition. As with the test compounds, the growth factor concentrations are 4X the desired final concentration. Use the assay media from day 0 step 2 to make the concentrations of growth factors. Incubate approximately 24 hours at 37° C., 5% CO2. Each well will have 50 μl test compound dilution, 50 μl growth factor or media, and 100 μl cells, which calculates to 200 μl/well total. Thus the 4X concentrations of test compound and growth factors become 1X once everything has been added to the wells.
(§9) 1. Add ^3H-thymidine (Amersham, catalogue no. TRK-686) at 1 μCi/well (10 μl/well of 100 μCi/ml solution made up in RPMI media +10% heat-inactivated fetal bovine serum) and incubate ˜24 h at 37° C., 5% CO2. RPMI is obtained from Gibco BRL, catalogue no. 11875-051.
(§10) 1. Freeze plates overnight at −20° C. […]

The next assay concerns HUV-EC-C cells (VEGF). In words: HUV-EC-C assay, VEGF-stimulated 3H-thymidine incorporation (HUVEC-VEGF). It is filed as cell-based. Conditions: Homo sapiens; Table 1. The protocol:
as §1, §2, §3, §4, §5, §6, §7, §8, §9, §10
(In general: Uptake of a labelled nucleoside into DNA is a usual measure of proliferation.)

For `Cc1c(CCC(=O)O)c[nH]c1/C=C1\C(=O)Nc2ccc(Cl)cc21` [Example 1, 3-[5-(5-Chloro-2-oxo-1,2-dihydroindol-3-ylidenemethyl)-4-methyl-1H-pyrrol-3-yl]-propionic acid], the figures for the IC50 in the assay with HUV-EC-C cells (aFGF) and with HUV-EC-C cells (VEGF) were 21400 nM and 380 nM, respectively.
The matching figures for `COc1ccc2c(c1)NC(=O)/C2=C\c1[nH]cc(CCC(=O)O)c1C` [Example 2, 3-[5-(6-Methoxy-2-oxo-1,2-dihydroindol-3-ylidenemethyl)-4-methyl-1H-pyrrol-3-yl]-propionic acid]: 31600 nM and 1600 nM.
The matching figures for `Cc1[nH]c(/C=C2\C(=O)Nc3ccc(Cl)cc32)c(C)c1CCC(=O)O` [Example 3, 3-[5-(5-Chloro-2-oxo-1,2-dihydroindol-3-ylidenemethyl)-2,4-dimethyl-1H-pyrrol-3-yl]-propionic acid]: 2800 nM and 50 nM.
Turning to `Cc1c(CCC(=O)O)c[nH]c1/C=C1\C(=O)Nc2ccccc21` [Example 4, 3-[4-Methyl-5-(2-oxo-l,2-dihydroindol-3-ylidenemethyl)-1H-pyrrol-3-yl]-propionic acid], the half-inhibitory concentration (IC50) worked out at 7100 nM with HUV-EC-C cells (aFGF) and 110 nM in the assay with HUV-EC-C cells (VEGF).
The like results for `Cc1c(CCC(=O)O)c[nH]c1/C=C1\C(=O)Nc2ccc(Br)cc21` [Example 6, 3-[5-(5-Bromo-2-oxo-1,2-dihydroindol-3-ylidenemethyl)-4-methyl-1H-pyrrol-3-yl]-propionic acid] were, in that order, 18400 nM and 630 nM.
The like results for `Cc1c(CCC(=O)O)c[nH]c1/C=C1\C(=O)Nc2ccc(I)cc21` [Example 7, 3-[5-(5-Iodo-2-oxo-1,2-dihydroindol-3-ylidenemethyl)-4-methyl-1H-pyrrol-3-yl]-propionic acid] were, in that order, 12300 nM and 1340 nM.
The like results for `Cc1cccc2c1/C(=C/c1[nH]cc(CCC(=O)O)c1C)C(=O)N2` [Example 8, 3-[4-Methyl-5-(4-methyl-2-oxo-1,2-dihydroindol-3-ylidenemethyl)-1H-pyrrol-3-yl]-propionic acid] were, in that order, 4520 nM and 740 nM.
With `Cc1ccc2c(c1)/C(=C/c1[nH]cc(CCC(=O)O)c1C)C(=O)N2` [Example 9, 3-[4-Methyl-5-(5-methyl-2-oxo-1,2-dihydroindol-3-ylidenemethyl)-1H-pyrrol-3-yl]-propionic acid], the figures for the IC50 in the assay on HUV-EC-C cells (aFGF) and in the assay with HUV-EC-C cells (VEGF) were 13400 nM and 330 nM, respectively.
The like results for `COc1cc2c(cc1OC)/C(=C/c1[nH]cc(CCC(=O)O)c1C)C(=O)N2` [Example 10, 3-[5-(5,6-Dimethoxy-2-oxo-1,2-dihydroindol-3-ylidenemethyl)-4-methyl-1H-pyrrol-3-yl]-propionic acid] were, in that order, greater than 50000 nM and 10600 nM.
The matching figures for `Cc1c(CCC(=O)O)c[nH]c1/C=C1\C(=O)Nc2cc(Cl)ccc21` [Example 11, 3-[5-(6-Chloro-2-oxo-1,2-dihydroindol-3-ylidenemethyl)-4-methyl-1H-pyrrol-3-yl]-propionic acid]: 9600 nM and 1400 nM.
The like results for `COC(=O)c1ccc2c(c1)/C(=C/c1[nH]cc(CCC(=O)O)c1C)C(=O)N2` [Example 12, 3-[4-(2-Carboxyethyl)-3-methyl-1H-pyrrol-2-ylmethylene]-2-oxo-2,3-dihydro-1H-indole-5-carboxylic acid methyl ester] were, in that order, 24600 nM and 11000 nM.
As for `CCc1ccc2c(c1)/C(=C/c1[nH]cc(CCC(=O)O)c1C)C(=O)N2` [Example 17, 3-[5-(5-Ethyl-2-oxo-1,2-dihydro-indol-3-ylidenemethyl)-4-methyl-1H-pyrrol-3-yl]-propionic acid], the values for the IC50 in the assay on HUV-EC-C cells (aFGF) and in the assay on HUV-EC-C cells (VEGF) were 20000 nM and 1200 nM, respectively.
With `COc1ccc2c(c1)/C(=C/c1[nH]cc(CCC(=O)O)c1C)C(=O)N2` [Example 18, 3-[5-(5-Methoxy-2-oxo-1,2-dihydroindol-3-ylidenemethyl)-4-methyl-1H-pyrrol-3-yl]-propionic acid], the IC50 in the assay on HUV-EC-C cells (aFGF) was determined as 18400 nM; in the assay with HUV-EC-C cells (VEGF), 2400 nM.
The like results for `Cc1[nH]c(/C=C2\C(=O)Nc3ccc(Br)cc32)c(C)c1CCC(=O)O` [Example 19, 3-[5-(5-Bromo-2-oxo-1,2-dihydroindol-3-ylidenemethyl)-2,4-dimethyl-1H-pyrrol-3-yl]-propionic acid] were, in that order, 3600 nM and 70 nM.
The matching figures for `Cc1[nH]c(/C=C2\C(=O)Nc3ccc(I)cc32)c(C)c1CCC(=O)O` [Example 20, 3-[5-(5-Iodo-2-oxo-1,2-dihydroindol-3-ylidenemethyl)-2,4-dimethyl-1H-pyrrol-3-yl]-propionic acid]: 5000 nM and 290 nM.
The matching figures for `Cc1cccc2c1/C(=C/c1[nH]c(C)c(CCC(=O)O)c1C)C(=O)N2` [Example 21, 3-[2,4-Dimethyl-5-(4-methyl-2-oxo-1,2-dihydroindol-3-ylidene-methyl)-1H-pyrrol-3-yl]-propionic acid]: 5600 nM and 4000 nM.
On to `Cc1ccc2c(c1)/C(=C/c1[nH]c(C)c(CCC(=O)O)c1C)C(=O)N2` [Example 22, 3-[2,4-Dimethyl-5-(5-methyl-2-oxo-1,2-dihydroindol-3-ylidenemethyl)-1H-pyrrol-3-yl]-propionic acid], for which the IC50 in the assay on HUV-EC-C cells (aFGF) worked out at 15800 nM; with HUV-EC-C cells (VEGF), 130 nM.
In the case of `Cc1[nH]c(/C=C2\C(=O)Nc3cc(O)ccc32)c(C)c1CCC(=O)O` [Example 23, 3-[5-(6-Hydroxy-2-oxo-1,2-dihydroindol-3-ylidenemethyl)-2,4-dimethyl-1H-pyrrol-3-yl]-propionic acid], the IC50 in the assay on HUV-EC-C cells (aFGF) is 1100 nM; in the assay with HUV-EC-C cells (VEGF) it was 3000 nM.
The matching figures for `COc1ccc2c(c1)NC(=O)/C2=C\c1[nH]c(C)c(CCC(=O)O)c1C` [Example 24, 3-[5-(6-Methoxy-2-oxo-1,2-dihydroindol-3-ylidenemethyl)-2,4-dimethyl-1H-pyrrol-3-yl]-propionic acid]: 25100 nM and 670 nM.
As for `COc1cccc(-c2ccc3c(c2)NC(=O)/C3=C\c2[nH]c(C)c(CCC(=O)O)c2C)c1` [Example 27, 3-{5-[6-(3-Methoxy-phenyl)-2-oxo-1,2-dihydroindol-3-ylidenemethyl]-2,4-dimethyl-1H-pyrrol-3-yl}-propionic acid], the IC50 in the assay on HUV-EC-C cells (aFGF) turned out to be 1500 nM; in the assay on HUV-EC-C cells (VEGF), 990 nM.
The like results for `Cc1c(CCC(=O)O)c[nH]c1/C=C1\C(=O)Nc2cc(Br)ccc21` [Example 28, 3-[5-(6-Bromo-2-oxo-1,2-dihydroindol-3-ylidenemethyl)-4-methyl-1H-pyrrol-3-yl]-propionic acid] were, in that order, 1900 nM and 150 nM.
The like results for `COc1cccc(-c2ccc3c(c2)NC(=O)/C3=C\c2[nH]cc(CCC(=O)O)c2C)c1` [Example 29, 3-{5-[6-(3-Methoxy-phenyl)-2-oxo-1,2-dihydroindol-3-ylidenemethyl]-4-methyl-1N-pyrrol-3-yl}-propionic acid] were, in that order, 130 nM and 180 nM.
`CCOc1cccc(-c2ccc3c(c2)NC(=O)/C3=C\c2[nH]c(C)c(CCC(=O)O)c2C)c1` [Example 30, 3-(5-[6-(3-Ethoxy-phenyl)-2-oxo-1,2-dihydroindol-3-ylidenemethyl]-2,4-dimethyl-1H-pyrrol-3-yl)-propionic acid]: the IC50 came to 640 nM with HUV-EC-C cells (aFGF) and 250 nM in the assay on HUV-EC-C cells (VEGF).

As a reminder, the IC50 is the concentration needed to halve the response being measured. Lower therefore signals inhibition by little substance.

Values taken from US7119090B2, “Pyrrole substituted 2-indolinone protein kinase inhibitors” (Sugen, Inc., priority 1998, dated 2006).
